Here are results for 15 compounds from patent US12018023B2 (NERVIANO MEDICAL SCIENCES S.R.L., priority 2018, dated 2024).

The test system of one assay is HT-1080 (IDH1^R132C). The assay can be described thus: Cellular 2-HG production assay, HT-1080. The assay is classed as cell-based. As to conditions: Homo sapiens, HT-1080, 72 h, inhibition of 2HG production, 72 hr incubation, LC-MS/MS; read-out: HT1080 2-HG IC50. As for the experimental part: (§1) Cell lines HT-1080 (commercially available) and U87-MG-IDH1^R132H (obtained in analoy to the procedure reported in J. Mol. Neurosci 2013, 50, 165-71) are maintained in E-MEM 10% FCS and incubated at 37° C. in a humidified 5% CO2 atmosphere. Stably transfected U87-MG cell lines are also supplemented with 500 μg/mL G418.
(§2) Cells are seeded into 96 well black flat bottom plates at a density of 500 cells/well in 100 μL complete medium. After 24 hr the medium is replaced with 200 uL of fresh medium and compounds (dissolved into DMSO) are administrated to the cells using D300E Digital Dispenser (Tecan).
(§3) After 72 hr of incubation 100 uL from each well are collected and used for 2HG (R(−)-2-hydroxyglutarate) quantification.
(§4) Levels of 2-HG in cell culture media are determined by LC-MS/MS. Cell supernatants (100 μL/well) are treated with 1 M aqueous trichloroacetic acid containing 130 μM of the internal standard 2-HG-d3 (20 μL/well) in a 96-well plate.
(§5) The plates are sealed, mildly vortexed for 60 minutes, centrifuged at 4,000 RPM for 15 minutes, placed in a refrigerated autosampler taking care not to shake them, and aliquots of the upper part of the samples are directly injected in the chromatographic system. Calibration standards are obtained by ten fold dilution of aqueous 2-HG stock solutions with blank cell culture medium and denatured exactly in the same way as described above for samples. Samples and standards are assayed for 2-HG by reversed phase chromatography on a C18 column eluted with aqueous 0.15% formic acid and briefly washed with 90% methanol at the end of the run. 2-HG is determined by negative ion electrospray ionization with the internal standard method on a triple quadrupole mass spectrometer monitoring the MRM transitions 147>129 (2-HG) and 150>132 (2-HG-d3). 2-HG inhibition was calculated by comparing treated versus control data using Assay Explore (Symyx) software, with IC50 determined using a sigmoidal fitting algorithm.

A further assay concerns the target T1, IDH1^R132C (Homo sapiens, UniProt O75874, R132C).
T1 construct: purchased not specified
The assay can be described thus: NADPH depletion assay, IDH1 R132C. In kind it is biochemical. Summed up:
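Fluorescence readout (Ex544/Em590) of NADPH left after diaphorase/resazurin addition. Alpha-ketoglutarate 0.14 mM final, enzyme 2 nM final; compound preincubation 15 min, then 60 min reaction, both at room temperature, pH 7.6 Tris buffer.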

For a further assay, the system named is U87MG_IDH1R132H. Kind of assay: Cellular 2-HG production assay, U87-MG-IDH1 R132H. The assay is classed as cell-based. As to conditions: inhibition of 2HG production, 72 hr incubation, LC-MS/MS. As for the experimental part: as §1, §2, §3, §4, §5
Assay [1] has as its target T2, IDH1^R132H homodimer enzyme (Homo sapiens, UniProt O75874, R132H).
T2 construct: purchased not specified
The assay can be described thus: NADPH depletion assay, IDH1 R132H. In kind it is biochemical. Summed up: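 IDH1 R132H enzyme (8 nM as diluted) in Tris-HCl pH 7.6 with 10 mM MgCl2, 0.001% Triton X-100 and 4 mM β-mercaptoethanol is preincubated 15 min at RT with compound. Substrate mix (12 uM NADPH, 3.4 mM α-ketoglutarate) is added for 60 min; remaining NAD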

A further assay addresses T3, IDH2^R172K (Homo sapiens, UniProt P48735, R172K).
T3 construct: purchased not specified
T3 sequence (P48735 40-452 R172K): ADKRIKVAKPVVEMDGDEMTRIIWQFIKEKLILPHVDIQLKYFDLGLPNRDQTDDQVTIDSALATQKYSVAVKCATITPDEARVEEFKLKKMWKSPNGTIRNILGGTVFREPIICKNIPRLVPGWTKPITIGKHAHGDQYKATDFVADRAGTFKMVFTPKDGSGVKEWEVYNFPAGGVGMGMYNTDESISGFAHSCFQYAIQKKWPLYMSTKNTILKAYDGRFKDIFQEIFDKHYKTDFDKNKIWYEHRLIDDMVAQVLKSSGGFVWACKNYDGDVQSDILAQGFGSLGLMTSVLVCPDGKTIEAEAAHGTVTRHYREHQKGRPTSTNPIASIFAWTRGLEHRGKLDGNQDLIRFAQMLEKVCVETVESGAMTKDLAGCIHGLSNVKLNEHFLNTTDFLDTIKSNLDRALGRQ
The assay can be described thus: NADPH depletion assay, IDH2 R172K. The assay is classed as biochemical. Summed up:
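This NADPH depletion assay measures NADPH left after conversion of alpha-ketoglutarate (0.55 mM final) by 16 nM IDH2 R172K over 60 min at room temperature, after a 15 min compound preincubation in pH 7.6 Tris buffer. Substrate mix held 12 μM NADPH. Diaphorase/resazurin gave the fluorescence read-out at 544/590 nm.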

pIC50: −log10 of the molar value.

T2 sequence (O75874 whole entry R132H): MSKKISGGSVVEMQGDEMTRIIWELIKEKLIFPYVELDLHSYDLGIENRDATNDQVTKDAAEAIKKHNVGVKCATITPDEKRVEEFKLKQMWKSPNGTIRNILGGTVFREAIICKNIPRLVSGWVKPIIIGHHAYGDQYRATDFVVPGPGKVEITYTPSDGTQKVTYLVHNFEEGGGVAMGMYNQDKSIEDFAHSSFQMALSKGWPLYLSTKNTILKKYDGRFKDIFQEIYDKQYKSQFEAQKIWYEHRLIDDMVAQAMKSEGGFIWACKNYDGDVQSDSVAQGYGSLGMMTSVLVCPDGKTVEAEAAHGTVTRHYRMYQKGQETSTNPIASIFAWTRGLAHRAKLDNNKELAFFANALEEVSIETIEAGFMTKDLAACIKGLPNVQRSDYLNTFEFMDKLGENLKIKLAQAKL
T1 sequence (O75874 whole entry R132C): as the sequence (O75874 whole entry R132H) above, with H132C counted along it

For the compound `C[C@H](Nc1ncc2ccc(=O)n(CC(C)(C)C)c2n1)c1ccc(CN2CCOCC2)cc1` [cpd 110, 8-(2,2-dimethylpropyl)-2-({(1S)-1-[4-(morpholin-4-ylmethyl)phenyl]ethyl}amino)pyrido[2,3-d]pyrimidin-7(8H)-one], the pIC50 is 6.23 in the assay on HT-1080 (IDH1^R132C), 6.98 on IDH1^R132C, 5.58 with U87MG_IDH1R132H and 6.62 in assay [1].
`C[C@H](Nc1ncc2ccc(=O)n([C@@H](C)C3CCCCC3)c2n1)c1ccc(CN2CCCC(F)(F)C2)cc1` [cpd 66, 8-[(1S)-1-cyclohexylethyl]-2-{[(1S)-1-{4-[(3,3-difluoropiperidin-1-yl)methyl]phenyl}ethyl]amino} pyrido[2,3-d]pyrimidin-7(8H)-one]: the pIC50 on IDH2^R172K was 5.34; with HT-1080 (IDH1^R132C) it was 6.45; on IDH1^R132C it was 7.03; with U87MG_IDH1R132H, 6.16; in assay [1], 6.79.
Regarding `CC(C)[C@H](C)n1c(=O)ccc2cnc(N[C@@H](C)c3ccc(CN4CCOCC4)c(F)c3)nc21` [cpd 68, 2-({(1S)-1-[3-fluoro-4-(morpholin-4-ylmethyl)phenyl]ethyl}amino)-8-[(2S)-3-methylbutan-2-yl]pyrido[2,3-d]pyrimidin-7(8H)-one], the negative logarithm of the IC50 (pIC50) with HT-1080 (IDH1^R132C) is 6.50; against IDH1^R132C, 7.54; in the assay on U87MG_IDH1R132H it was 6.19; in assay [1] it was 7.11.
As for `C[C@H](Nc1ncc2ccc(=O)n(CC3CCC3)c2n1)c1ccc(CN2CCC(F)(F)CC2)cc1` [cpd 109, 8-(cyclobutylmethyl)-2-{[(1S)-1-{4-[(4,4-difluoropiperidin-1-yl)methyl]phenyl}ethyl]amino}pyrido[2,3-d]pyrimidin-7(8H)-one], the negative-log IC50 (pIC50) was 5.25 on IDH2^R172K, 6.66 at IDH1^R132C, 5.74 with U87MG_IDH1R132H and 6.48 in assay [1].
In the same order, the values of `C[C@H](Nc1ncc2ccc(=O)n(CC(C)(C)C#N)c2n1)c1ccc2ccccc2c1` [cpd 129, 2,2-dimethyl-3-[2-{[(1S)-1-(naphthalen-2-yl)ethyl]amino}-7-oxopyrido[2,3-d]pyrimidin-8(7H)-yl]propanenitrile] are 5.18, 7.01, 5.42 and 6.71.
Turning to `C[C@H](Nc1ncc2ccc(=O)n(Cc3c(F)cccc3F)c2n1)c1ccc(CN2CCC(F)(F)CC2)cc1` [cpd 99, 8-(2,6-difluorobenzyl)-2-{[(1S)-1-{4-[(4,4-difluoropiperidin-1-yl)methyl]phenyl}ethyl]amino}pyrido[2,3-d]pyrimidin-7(8H)-one], the negative logarithm of the IC50 (pIC50) against IDH2^R172K is 5.44; against IDH1^R132C, 6.88; in the assay on U87MG_IDH1R132H, 5.86; in assay [1] it was 6.70.
In the same order, the values of `C[C@H](Nc1ncc2ccc(=O)n(CC(C)(C)C)c2n1)c1ccc(-c2cnn(C)c2)cc1` [cpd 130, 8-(2,2-dimethylpropyl)-2-({(1S)-1-[4-(1-methyl-1H-pyrazol-4-yl)phenyl]ethyl}amino)pyrido[2,3-d]pyrimidin-7 (8H)-one] are 5.30, 7.03, 5.32 and 6.74.
For `CC(C)n1c(=O)ccc2cnc(N[C@@H](C)c3ccc(CN4CCCC(F)(F)C4)cc3)nc21` [cpd 170, 2-{[(1S)-1-{4-[(3,3-difluoropiperidin-1-yl)methyl]phenyl}ethyl]amino}-8-(propan-2-yl)pyrido[2,3-d]pyrimidin-7(8H)-one], the negative logarithm of the IC50 (pIC50) against IDH2^R172K is 5.51; in the assay on HT-1080 (IDH1^R132C), 6.35; on IDH1^R132C, 7.05; in the assay with U87MG_IDH1R132H, 6.20; in assay [1] it was 6.78.
Turning to `C[C@H](Nc1ncc2ccc(=O)n(CC(C)(C)CO)c2n1)c1ccc2ccccc2c1` [cpd 38, 8-(3-hydroxy-2,2-dimethylpropyl)-2-{[(1S)-1-(naphthalen-2-yl)ethyl]amino}pyrido[2,3-d]pyrimidin-7(8H)-one], the pIC50 at IDH2^R172K was 5.12; at IDH1^R132C it was 7.17; in the assay with U87MG_IDH1R132H, 5.58; in assay [1], 6.86.
In the same order, the values of `C[C@H](Nc1ncc2ccc(=O)n(CC(C)(C)C)c2n1)c1cc2cc(Cl)ccc2[nH]c1=O` [cpd 50, 2-{[(1S)-1-(6-chloro-2-oxo-quinolin-3-yl)ethyl]amino}-8-(2,2-dimethylpropyl)pyrido[2,3-d]pyrimidin-7(8H)-one] are 5.60, 7.42, 5.60 and 7.17.
As for `C[C@H](Nc1ncc2ccc(=O)n(CC(C)(C)C)c2n1)c1ccc(C(=O)NC2CCC(F)(F)CC2)c(F)c1` [cpd 89, N-(4,4-difluorocyclohexyl)-4-[(1S)-1-{[8-(2,2-dimethylpropyl)-7-oxo-7,8-dihydropyrido[2,3-d]pyrimidin-2-yl]amino}ethyl]-2-fluorobenzamide], the negative-log IC50 (pIC50) in the assay with HT-1080 (IDH1^R132C) is 6.30; at IDH1^R132C, 7.12; with U87MG_IDH1R132H, 6.30; in assay [1] it was 6.95.
Take `C[C@H](Nc1ncc2ccc(=O)n(CC3CCCCC3)c2n1)c1ccc(CN2CCC(F)(F)CC2)cc1` [cpd 113, 8-(cyclohexylmethyl)-2-{[(1S)-1-{4-[(4,4-difluoropiperidin-1-yl)methyl]phenyl}ethyl]amino}pyrido[2,3-d]pyrimidin-7(8H)-one]: the pIC50 is 5.26 against IDH2^R172K, 6.55 at IDH1^R132C, 5.60 in the assay with U87MG_IDH1R132H and 6.44 in assay [1].
In the same order, the values of `C[C@H](Nc1ncc2ccc(=O)n(CC(C)(C)C)c2n1)c1ccc(-c2ccnc(F)c2)cc1` [cpd 132, 8-(2,2-dimethylpropyl)-2-({(1S)-1-[4-(2-fluoropyridin-4-yl)phenyl]ethyl}amino)pyrido[2,3-d]pyrimidin-7(8H)-one] are 5.21, 6.91, 5.49 and 6.71.
In the same order, the values of `CC(C)Cn1c(=O)ccc2cnc(N[C@@H](C)c3ccc(CN4CCC(F)(F)CC4)cc3)nc21` [cpd 104, 2-{[(1S)-1-{4-[(4,4-difluoropiperidin-1-yl)methyl]phenyl}ethyl]amino}-8-(2-methylpropyl)pyrido[2,3-d]pyrimidin-7(8H)-one] are 5.29, 6.92, 5.75 and 6.56.
With `CC(C)[C@H](C)n1c(=O)ccc2cnc(N[C@@H](C)c3ccc(CN4CCCC(F)(F)C4)cc3)nc21` [cpd 65, 2-{[(1S)-1-{4-[(3,3-difluoropiperidin-1-yl)methyl]phenyl}ethyl]amino}-8-[(2S)-3-methylbutan-2-yl]pyrido[2,3-d]pyrimidin-7(8H)-one], the negative-log IC50 (pIC50) was 7.09 in the assay on HT-1080 (IDH1^R132C), 7.96 at IDH1^R132C, 6.75 in the assay with U87MG_IDH1R132H and 7.70 in assay [1].
